Laboratory results: US20110177155A1, “METHODS OF DELIVERY OF AGENTS TO LEUKOCYTES AND ENDOTHELIAL CELLS” (IMMUNE DISEASE INSTITUTE, INC., priority 2007, published 2011)

Columns and labels:
[1] = test system: siRNA-mediated mRNA degradation; conditions: cited from earlier work
[2] = test system: INF-β, OAS1 and STAT1; assay: Interferon assay (quantitative RT-PCR of IFN-responsive genes in splenocytes); assay type: cell-based, mouse
Procedure: Spleenocytes (1×10^6 cells/ml) were mock treated or treated with β7 It-sNP and luciferase-siRNA (1000 pmol) or 5 μg/ml poly (I:C). After 48 h RNA was isolated and analyzed by quantitative RT-PCR for induction of IFN or interferon responsive genes as described below.
Total RNA (1 μg) isolated using RNeasy RNA isolation kit (Qiagen) or for tissues, RNAlater RNA stabilization reagent was used followed by RNeasy fibrous tissue mini kit (Qiagen) and reverse transcribed using Superscript III (Invitrogen) and random hexamers, according to the manufacturer's protocol. […] SYBR green (Molecular Probes) was used to detect PCR products. All reactions were done in a 25 μl reaction volume in triplicate. Primers for mouse GAPDH, STAT1, OAS1 and INF β were previously described (Song et al., 2005). The following primer pairs have been used: IL-12p40: Forward: 5′-[…]-3′ (SEQ ID NO:9); Reverse: 5′-[…]-3′ (SEQ ID NO:10); TNF α: Forward 5′-[…]-3′ (SEQ ID NO:11), Reverse 5′-[…]-3′ (SEQ ID NO:12); Cyclin D1: Forward 5′-CTTCCTCTCCAAAATGCCAG-3′ (SEQ ID NO:13), Reverse 5′-AGAGATGGAAGGGGGAAAGA-3′ (SEQ ID NO:14). PCR parameters consisted of 5 min of Taq activation at 95° C., followed by 40 cycles of PCR at 95° C.×20 sec, 60° C.×30 sec, and 69° C.×20 sec. Standard curves were generated and the relative amount of target gene mRNA was normalized to GAPDH mRNA. […]

induction of interferon-responsive genes (IRG: INF-β, OAS1, STAT1 mRNA) [2]	Molecule	enhancement of siRNA-mediated mRNA degradation ([1]; with siRNA)	effect in mRNA degradation by itself ([1]; without siRNA)
	CCn1cc(C(=O)O)c(=O)c2cc(F)c(N3CCNCC3)nc21 [Enoxacin]	enhances siRNA-mediated degradation	essentially no effect
induced	poly (I:C)		
